Assay results from patent US7067155B2, “Anti-inflammatory humate compositions and methods of use thereof” (TBNI, Inc., priority 2003, dated 2006).

Tested on: carrageenan-induced edema
Assay: Carrageenan-induced hind paw edema in rats, humate in chow for 37 days with or without indomethacin (Example 3)
Format: in vivo, rat
Details: indomethacin only, 3 mg/kg subcutaneously 30 min before carrageenan; P<0.05
Text: Male Sprague Dawley rats weighing approximately 50 g were purchased from Harlan U.S. and housed in wire cages in the animal facility at Mercer University School of Pharmacy. The animals were given a short period of time to acclimate to the new environment and received powdered rat chow from Purina and water ad libitum. At the beginning of the experimental period, the rats were divided into six groups of eight each. Control and indomethacin only groups received only powdered rat chow for the entire length of the experiment. For the four other groups, insoluble granular Menefee Humate® was mixed with the powdered rat chow and placed in feeders. Rats received chow with either 0.1%, 0.5% or 1.0% insoluble, granular Menefee Humate® by weight. After 37 days of receiving humate in their food, the animals weighed approximately 278 g, which in an appropriate size for inducing inflammation. An amount of indomethacin sufficient to achieve 50% inhibition of carrageenan-induced edema (3 mg/kg) was administered to the indomethacin only group and to the 0.1% humate plus indomethacin group. The indomethacin was administered subcutaneously 30 minutes before the administration of carageenan. The rats were then injected in one hind paw with carrageenan (2%). After three hours, the hind paws were measured by mercury displacement.

With `COc1ccc2c(c1)c(CC(=O)O)c(C)n2C(=O)c1ccc(Cl)cc1` [indomethacin] the “inhibition of carrageenan-induced edema” value was about 50%.
